Results taken from ChEMBL document CHEMBL1151511, “Structure-based design of an inhibitor modeled at the substrate active site of aldose reductase” (Bioorg Med Chem Lett, 1997).

Assays:
[1] = molecular target: T1, Aldo-keto reductase family 1 member B1 (Bos taurus, UniProt P16116); experiment: Tested for inhibition of bovine lens Aldose reductase (ALR2), expressed as IC50
[2] = molecular target: T1, Aldo-keto reductase family 1 member B1; experiment: Inhibitory activity of compound against modified enzyme form of S-glutathionyl Aldose reductase
[3] = molecular target: T1, Aldo-keto reductase family 1 member B1; experiment: Inhibitory activity of compound against modified enzyme form of S-glutathionyl Aldose reductase; Inactive

IC50 [1] [µM] | IC50 [2] [µM] | IC50 [3] | SMILES
0.15 | 17 | – | O=C(O)Cn1nc2c(c(Cc3nc4cc(C(F)(F)F)ccc4s3)c1=O)CCc1ccccc1-2
12 | – | Not Active | O=C(O)Cn1nc2c(cc1=O)CCc1ccccc1-2
